Source: PMC6100046, “Plasma Pharmacokinetic Determination of Canagliflozin and Its Metabolites in a Type 2 Diabetic Rat Model by UPLC-MS/MS” (Molecules : A Journal of Synthetic Chemistry and Natural …, 2018)
Read-outs that look alike come from different tables or passages of the source. Blank lines part the entries; values can stand above or below the compound they belong to.

Key:
[1] = Plasma pharmacokinetics of canagliflozin and its metabolites after oral administration to CTRL and type 2 diabetic (DM) rats, UPLC-MS/MS; assay type: in vivo, rat; conditions: for AUC(0-inf) / Tmax / MRT last / half-life / Cmax: po; for AUC(0-inf): AUC0–∞, heading: AUC0–∞; for MRT last: read-out: MRT0–t; for half-life: read-out: t1/2z (converted); for Cmax: metabolites semi-quantitative; for Concentration of metabolite in rat plasma (in words): rat plasma after canagliflozin, UPLC-TOF-MS/MS identification
Excerpt: The determination of metabolite concentrations was done by a semi-quantitative analysis method: the peak area of the metabolites was divided by the peak area of the original drug and then multiplied by the concentration of original drug.
The type 2 diabetic model was developed using a combination of a high-fat diet (HFD) and low-dose STZ injection. Briefly, rats were randomized into CTRL (control) and DM (diabetes mellitus) groups. The CTRL rats received a standard diet, whereas DM rats were fed high-fat food, which consisted of 63.5–66.5% normal chow, 1% cholesterol, 0.5% sodium cholate, 10% yolk, 12–15% lard, and 10% sucrose. DM rats were given an intraperitoneal injection of STZ (35 mg/kg, dissolved in citrate buffer, pH 4.5) after 4 weeks of dietary alteration, and CTRL rats received an equivalent injection of citrate buffer only. The blood glucose concentrations, food intake, and body weights of the rats were monitored weekly. Rats with non-fasting blood glucose levels lower than 16.67 mmol/L (300 mg/dL) were excluded from the DM group. Biochemical parameters (serum triglycerides, serum total cholesterol, and insulin) were measured on day 28 after the injection of STZ. The homeostasis model assessment of insulin resistance (HOMA-IR) was calculated by a standard equation to examine insulin sensitivity. The following experiments were performed on day 35 after STZ injection.
We performed the pharmacokinetic studies of canagliflozin after oral administration by gavage, and all rats used in this research were fasted for 12 h before dosing. CTRL and DM group rats (5 rats in each group) received a dose of canagliflozin at 20 mg/kg that was suspended in 0.5% sodium carboxymethylcellulose. A blood quantity of less than 0.3 mL was sampled via the oculi chorioideae vein after administration of canagliflozin at 1, 2, 3, 4, 5, 6, 7, 8, 10, 12, 24, 36 and 48 h under light ether anesthesia. All blood samples were immediately centrifuged at 5000 rpm for 10 min and the plasma was collected and frozen at −40 °C until analysis.
The acquisition software used were Analyst TF 1.7.1 software and Analyst software (AB Sciex, Redwood city, CA, USA). The pharmacokinetic parameters were processed by non-compartmental analysis using DAS 2.1.1 software (Mathematical Pharmacology Professional Committee of China, Shanghai, China). Data are presented as means ± SDs. Statistical differences were evaluated by Student’s t-test. A p-value of less than 0.05 indicated a statistically significant difference (SPSS 18.0 software, SPSS Inc., Chicago, IL, USA).

[2] = Stability of canagliflozin in rat plasma samples (QC samples); assay type: in vitro ADME; conditions: for Concentration found after storage (Mean ± SD): rat plasma, n = 5
Method: High, medium and low levels of QC concentrations were used to evaluate the stability of canagliflozin in plasma under the experimental conditions.
The specificity of the method was evaluated by comparing the chromatography of rat blank plasma samples with blank rat plasma spiked with standards at high, medium, low concentrations including LLOQ and rat plasma samples after oral administration of canagliflozin. The intra-day accuracy and precision were determined by analyzing five replicates of the QC samples at high, medium, and low concentrations within one day, while the inter-day accuracy and precision were conducted by determining five replicates of four levels of QCs on 3 separate days. The assay’s accuracy was represented by the […]. The precision was represented as the relative standard deviation (RSD) of the replicates. The matrix effect was determined by dividing the peak areas of canagliflozin spiked into extracted blank plasma by that of the analyte spiked in the mobile phase. The extraction recovery of canagliflozin and IS was assessed by comparing the peak areas of extracted plasma. […] […] The freeze (−80 °C)–thaw (room temperature) stability of the analytes in rat plasma was tested via three freeze–thaw cycles. […] In regard to the storage stability, the QC samples were prepared and stored at −80 °C for 30 days.

[3] = rat, plasma, 20 mg/kg, CTRL rats, canagliflozin 20 mg/kg oral, mean ± SD, n = 5
[4] = rat, plasma, 20 mg/kg, DM (type 2 diabetic) rats, canagliflozin 20 mg/kg oral, mean ± SD, n = 5

- CL/F ([1]; rat, plasma, 20 mg/kg, heading: CLz/F, CTRL rats, canagliflozin 20 mg/kg oral, mean ± SD, n = 5): 0.358 L/h/kg
- AUC(0-inf) ([1]; rat, plasma, 20 mg/kg, CTRL rats, canagliflozin 20 mg/kg oral, plasma, mean ± SD, n = 5): 56.3 µg·h/mL
- AUC(0-inf) ([1]; rat, plasma, 20 mg/kg, DM (type 2 diabetic) rats, canagliflozin 20 mg/kg oral, plasma, mean ± SD, n = 5): 28.4 µg·h/mL
- Tmax [1, 3]: 3.6 ± 0.89 h
- MRT last [1, 3]: 14.1 ± 1.58 h
- half-life [1, 3]: 12.9 ± 2.64 h
- Cmax [1, 3]: 3.31 ± 0.566 µg/mL
- Cmax [1, 4]: 2.23 ± 0.559 µg/mL
- Tmax [1, 4]: 3.2 ± 0.45 h
- MRT last [1, 4]: 12.3 ± 2.77 h
- half-life [1, 4]: 10.2 ± 3.49 h
- Stability in rat plasma (in words) ([2]; auto-sampler temperature (4 °C), 24 h): good stability
- Concentration found after storage (Mean ± SD) ([2]; autosampler (4 °C) for 24 h, nominal concentration 25): 0.0257 ± 0.00033 µg/mL
- Concentration found after storage (Mean ± SD) ([2]; autosampler (4 °C) for 24 h, nominal concentration 500): 0.5031 ± 0.00441 µg/mL
- Concentration found after storage (Mean ± SD) ([2]; autosampler (4 °C) for 24 h, nominal concentration 800): 0.8068 ± 0.00564 µg/mL
- Concentration found after storage (Mean ± SD) ([2]; room temperature (25 °C) for 24 h, nominal concentration 25): 0.0262 ± 0.00096 µg/mL
- Concentration found after storage (Mean ± SD) ([2]; room temperature (25 °C) for 24 h, nominal concentration 500): 0.5044 ± 0.00318 µg/mL
- Concentration found after storage (Mean ± SD) ([2]; room temperature (25 °C) for 24 h, nominal concentration 800): 0.8073 ± 0.00612 µg/mL
- Concentration found after storage (Mean ± SD) ([2]; three freeze–thaw cycles (each at −80 °C for 24 h), nominal concentration 25): 0.026 ± 0.00102 µg/mL
- Concentration found after storage (Mean ± SD) ([2]; three freeze–thaw cycles (each at −80 °C for 24 h), nominal concentration 500): 0.5052 ± 0.00412 µg/mL
- Concentration found after storage (Mean ± SD) ([2]; three freeze–thaw cycles (each at −80 °C for 24 h), nominal concentration 800): 0.8062 ± 0.00419 µg/mL
- Concentration found after storage (Mean ± SD) ([2]; −80 °C for 30 days, nominal concentration 25): 0.0269 ± 0.00085 µg/mL
- Concentration found after storage (Mean ± SD) ([2]; −80 °C for 30 days, nominal concentration 500): 0.5043 ± 0.00214 µg/mL
- Concentration found after storage (Mean ± SD) ([2]; −80 °C for 30 days, nominal concentration 800): 0.8063 ± 0.00351 µg/mL
- Stability in rat plasma (in words) ([2]; room temperature (25 °C) for 24 h): stable
- Stability in rat plasma (in words) ([2]; storage conditions (−80 °C) for at least 30 days): stable
- Stability in rat plasma (in words) ([2]; −80 °C followed by three freeze and thaw cycles): good stability
Structure (SMILES): Cc1ccc([C@@H]2O[C@H](CO)[C@@H](O)[C@H](O)[C@H]2O)cc1Cc1ccc(-c2ccc(F)cc2)s1 [Canagliflozin]

- Concentration of metabolite in rat plasma (in words) [1]: high
- Tmax [1, 3]: 1.8 ± 0.84 h
- half-life [1, 3]: 14.6 ± 18.3 h
- Cmax [1, 3]: 0.126 ± 0.0311 µg/mL
- Cmax [1, 4]: 0.16 ± 0.0544 µg/mL
- Tmax [1, 4]: 1.67 ± 0.58 h
- half-life [1, 4]: 13.3 ± 6.25 h
Structure (SMILES): Cc1ccc(C2OC(CO)C(O)C(O)C2OC2OC(C(=O)O)C(O)C(O)C2O)cc1Cc1ccc(-c2ccc(F)cc2)s1 (stereo not shown) [M5]

- Concentration of metabolite in rat plasma (in words) [1]: high
- Tmax [1, 3]: 2.02 ± 0.11 h
- half-life [1, 3]: 10 ± 6.45 h
- Cmax [1, 3]: 0.0449 ± 0.0205 µg/mL
- Cmax [1, 4]: 0.0906 ± 0.0187 µg/mL
- Tmax [1, 4]: 1.81 ± 0.12 h
- half-life [1, 4]: 14.5 ± 4.86 h
Structure (SMILES): Cc1ccc(C2OC(CO)C(O)C(OC3OC(C(=O)O)C(O)C(O)C3O)C2O)cc1Cc1ccc(-c2ccc(F)cc2)s1 (stereo not shown) [M7]

- Concentration of metabolite in rat plasma (in words) [1]: almost too low to quantify
Structure (SMILES): OCc1ccc([C@@H]2O[C@H](CO)[C@@H](O)[C@H](O)[C@H]2O)cc1Cc1ccc(-c2ccc(F)cc2)s1 [M8]

- Concentration of metabolite in rat plasma (in words) [1]: high
- Tmax [1, 3]: 5.01 ± 0.11 h
- half-life [1, 3]: 10.7 ± 1.63 h
- Cmax [1, 3]: 0.0975 ± 0.0108 µg/mL
- Cmax [1, 4]: 0.161 ± 0.0105 µg/mL
- Tmax [1, 4]: 4.75 ± 0.5 h
- half-life [1, 4]: 12.8 ± 8.81 h
Structure (SMILES): Cc1ccc(C2OC(CO)C(O)C(O)C2O)cc1C(O)c1ccc(-c2ccc(F)cc2)s1 (stereo not shown) [M9]
